Assay results reported in patent publication US7511284B2, “Photostabilisation of fluorescent dyes” (International University Bremen GmbH, priority 2004, dated 2009).
Marks after values point to notes of the source that are not given here.

Legend:
[1] = Photobleaching of aqueous dye solution under 532-nm Nd-YAG laser irradiation, monitored by UV-Vis absorption
Experimental: The addition of cucurbituril (mixture of a plurality of cucurbiturils, wherein cucurbit[7]uril (formula (D), also known as CB7) was the predominant species according to mass spectrometry, with cucurbit[5]uril as a detectable impurity), concentration of cucurbit[7]uril 1-2 mM, mixture prepared as described in C. […] The photostabilisation of the fluorescent dye stabilised by cucurbituril (CB7) was monitored by the characteristic visible absorption band with a Varian Cary 50 UV-VIS spectrophotometer, based on a cucurbituril-free, optically adapted (at 532 nm) solution of the fluorescent dye. The UV-Vis spectra were recorded at different irradiation times (FIG. 1), and the decreasing absorption (A) at 532 nm was plotted against the pertinent function log([10^A0−1]/[10^A−1]). […] The concentrations with and without cucurbit[7]uril are not identical, but were so chosen that the absorbance at 532 nm was identical at the start of irradiation. The concentration of rhodamine 6G was lower in samples containing cucurbit[7]uril than in samples without cucurbit[7]uril owing to a higher extinction coefficient.
The quantum yield of the photobleaching was determined by means of the initial linear region of the graph (FIG. 2) of the ratio of the gradients S(D)/S(D+CB7)=εDφb(D)/[εD+CB7φb(D+CB7)], wherein εD+CB7 and εD are the extinction coefficient of the dye (D) with and without CB7 at the irradiation wavelength of 532 nm.
The chosen stabilisation factor was the ratio of the quantum yields of the photobleaching in the absence and presence of CB7.

[2] = Fluorescence quantum yield and brightness with and without CB7; type: physicochemical; parameters: ε × φf (brightness): unit not given beside the values
[3] = Absorption and fluorescence maxima with and without CB7; type: physicochemical; parameters: unit not given here
Description: Addition of cucurbiturils leads to the formation of complexes with fluorescent dyes, which have changed photophysical properties, see examples in Table 3.

[4] = Photostabilisation of fluorescent dyes by cucurbiturils (preliminary tests, tests carried out hitherto); conditions: for photostabilisation by the use of a cucurbituril: in particular cucurbit[7]uril; for photostabilisation of conventional fluorescent dyes by the cucurbituril: preliminary tests, in particular xanthene and cyanine fluorescent dyes
[5] = Decrease of fluorescence intensity of dye solutions stored in daylight (ambient light); type: physicochemical; conditions: for Stabilisation factor: with 1 mM CB7, daylight; for fluorescence intensity after exposure to daylight: 300 hours
Experimental: As an alternative, the decrease in the fluorescence intensity of the above-described solutions was determined by observing their fluorescence (Cary Eclipse Fluorometer, Varian) when the solutions were stored in daylight (ambient light). The fluorescence intensity remained unchanged over the observation period for the solution containing cucurbituril, whereas it felt markedly for the cucurbituril-free solution (FIG. 3), with approximate half-lives of about 80 to 390 hours, depending on the sample vessel.

[6] = Decrease in photon count rate in fluorescence correlation spectroscopy (FCS) on a confocal microscope; type: physicochemical; conditions: for relative photon count rate: irradiation for 2000 seconds; for count rate present: after 30 minutes irradiation, 10 nM dye
Experimental: Aqueous solutions of fluorescent dyes (10 nM) with and without cucurbit[7]uril (1 mM) were also studied by fluorescence correlation spectroscopy (FCS) on a confocal microscope (Carl Zeiss LSM 510 Confocor 2), which is used for several applications relevant for biology, biochemistry and spectroscopy. 400 μl of each solution were transferred to an 8-chamber cover glass system and irradiated with the light of a CW laser. The decrease in the count rate, which is directly proportional to the mean fluorescence intensity of the sample, was measured against the irradiation time. […] Considerable photostabilisation can again be seen, because without cucurbit[7]uril less than 30%, but with cucurbit[7]uril still more than 90% of the count rate is present after 30 minutes. The observed photostabilisation factors are contained in Table 2 (footnotes b, c, d).
The photon count rate in samples containing cucurbit[7]uril fell during irradiation for 2000 seconds only to about 95%, while the […] of the cucurbit[7]uril-free sample fell to about 25% of the initial value in the same time.

rhodamine 123
number of absorption cycles before a molecule decomposes ([1]; without cucurbit[7]uril): 1.6 million | ε × φf (brightness) ([2]; with 1 mM CB7): 24097 | φf ([2]; with 1 mM CB7): 0.362 | ε × φf (brightness) ([2]; without CB7): 57470 | φf ([2]; without CB7): 0.83 | λabs max ([3]; with 1 mM CB7): 502.6 | λem max ([3]; with 1 mM CB7): 532.0 | λabs max ([3]; without CB7): 500.0 | λem max ([3]; without CB7): 525.0 | photostabilisation by the use of a cucurbituril [4]: Particularly good photostabilisation

CCN=c1cc2oc3cc(NCC)c(C)cc3c(-c3ccccc3C(=O)OCC)c-2cc1C.Cl [Rhodamine 6G, rhodamine 6G]
Stabilisation factor ([5]; quartz cuvette): >500* | Stabilisation factor ([5]; screw-top glass bottle): >5000* | fluorescence intensity after exposure to daylight ([5]; with cucurbit[7]uril in glass bottles): hardly decreases at all | fluorescence intensity after exposure to daylight ([5]; without cucurbit[7]uril, glass bottle): 60 % of the original value | fluorescence intensity after exposure to daylight ([5]; without cucurbit[7]uril, quartz cuvettes): 90 % of the original value | Stabilisation factor ([1]; 1 mM CB7, 3 μM dye solutions, 532-nm laser light (1.3 W, 10 Hz) of a Nd-YAG laser): 30.0^a | Stabilisation factor ([1]; with 1 mM CB7, high laser power (2.1 W), 532 nm): 7.5* | Stabilisation factor ([1]; with 1 mM CB7, low laser power (1.3 W), 532 nm): 30* | number of absorption cycles before a molecule decomposes ([1]; with addition of cucurbit[7]uril (CB7 solution)): 22 million | number of absorption cycles before a molecule decomposes ([1]; without cucurbit[7]uril): 0.8 million | ε × φf (brightness) ([2]; with 1 mM CB7): 81594 | φf ([2]; with 1 mM CB7): 0.883 | ε × φf (brightness) ([2]; without CB7): 71218 | φf ([2]; without CB7): 0.89 | λabs max ([3]; with 1 mM CB7): 534.6 | λem max ([3]; with 1 mM CB7): 555.0 | λabs max ([3]; without CB7): 526.0 | λem max ([3]; without CB7): 552.0 | photostabilisation by the use of a cucurbituril [4]: Particularly good photostabilisation

Cc1cc(=O)oc2c3c4c(cc12)CCCN4CCC3 [Coumarin-102, coumarin 102]
absorbance (extinction coefficient) and fluorescence quantum yield (intensity) in a complex with cucurbituril versus without [2]: greater | ε × φf (brightness) ([2]; with 1 mM CB7): 17807 | φf ([2]; with 1 mM CB7): 0.754 | ε × φf (brightness) ([2]; without CB7): 14388 | φf ([2]; without CB7): 0.66 | λabs max ([3]; with 1 mM CB7): 404.6 | λem max ([3]; with 1 mM CB7): 476.0 | λabs max ([3]; without CB7): 392.6 | λem max ([3]; without CB7): 489.0

Cc1c(C)c2cc3c4c(c2oc1=O)CCCN4CCC3 [coumarin 39]
photostabilisation by the use of a cucurbituril [4]: Particularly good photostabilisation

CN(C)c1ccc2c(-c3ccccc3C(=O)[O-])c3ccc(N(C)C)cc3[o+]c2c1 [Tetramethylrhodamine, tetramethylrhodamine]
Stabilisation factor ([6]; 1 mM CB7, 10 nM dye solutions, 514-nm laser light (30 mW, cw), FCS, after 35 minutes, via photon count rate): 4.3^b | relative photon count rate ([6]; cucurbit[7]uril-free sample): about 25 % of the initial value | count rate present ([6]; with cucurbit[7]uril (1 mM)): more than 90% | relative photon count rate ([6]; with cucurbit[7]uril): about 95 % of the initial value | count rate present ([6]; without cucurbit[7]uril): less than 30% | ε × φf (brightness) ([2]; with 1 mM CB7): 20277 | φf ([2]; with 1 mM CB7): 0.271 | ε × φf (brightness) ([2]; without CB7): 17553 | φf ([2]; without CB7): 0.20 | λabs max ([3]; with 1 mM CB7): 558.6 | λem max ([3]; with 1 mM CB7): 582.0 | λabs max ([3]; without CB7): 552.6 | λem max ([3]; without CB7): 577.0 | photostabilisation by the use of a cucurbituril [4]: Particularly good photostabilisation

O=C1N2CN3C(=O)N4CN5C(=O)N6CN7C(=O)N8CN9C(=O)N%10CN%11C(=O)N%12CN1C1C2N2CN%13C(=O)N(CN%14C(=O)N(CN%15C(=O)N(CN%16C(=O)N(CN%17C(=O)N(CN1C2=O)C%12C%11%17)C%10C9%16)C8C7%15)C6C5%14)C4C3%13 (centres unmarked) [cucurbit[6]uril]
photostabilisation of conventional fluorescent dyes by the cucurbituril [4]: best photostabilisation

O=C1N2CN3C(=O)N4CN5C(=O)N6CN7C(=O)N8CN9C(=O)N%10CN%11C(=O)N%12CN%13C(=O)N%14CN%15C(=O)N%16CN1C1C2N2CN%17C(=O)N(CN%18C(=O)N(CN%19C(=O)N(CN%20C(=O)N(CN%21C(=O)N(CN%22C(=O)N(CN%23C(=O)N(CN1C2=O)C%16C%15%23)C%14C%13%22)C%12C%11%21)C%10C9%20)C8C7%19)C6C5%18)C4C3%17 (centres unmarked) [cucurbit[8]uril]
photostabilisation of conventional fluorescent dyes by the cucurbituril [4]: best photostabilisation

O=C1N2CN3C(=O)N4CN5C(=O)N6CN7C(=O)N8CN9C(=O)N%10CN1C1C2N2CN%11C(=O)N(CN%12C(=O)N(CN%13C(=O)N(CN%14C(=O)N(CN1C2=O)C%10C%149)[C@H]8[C@H]7%13)[C@H]6[C@H]5%12)C4C3%11 (some centres unmarked) [cucurbit[5]uril]
photostabilisation of conventional fluorescent dyes by the cucurbituril [4]: best photostabilisation

CCN1C(=CC=CC2=[N+](CC)c3ccc(S(=O)(=O)[O-])cc3C2(C)C)C(C)(C)c2cc(S(=O)(=O)O)ccc21 [Cyanine 3, cyanine 3]
ε × φf (brightness) ([2]; with 1 mM CB7): 11502 | φf ([2]; with 1 mM CB7): 0.108 | ε × φf (brightness) ([2]; without CB7): 18000 | φf ([2]; without CB7): 0.15 | λabs max ([3]; with 1 mM CB7): 558.6 | λem max ([3]; with 1 mM CB7): 571.0 | λabs max ([3]; without CB7): 544.6 | λem max ([3]; without CB7): 560.0

CCN1C(=CC=CC=CC2=[N+](CC)c3ccc(S(=O)(=O)[O-])cc3C2(C)C)C(C)(C)c2cc(S(=O)(=O)O)ccc21 [Cyanine 5, cyanine 5]
absorbance (extinction coefficient) and fluorescence quantum yield (intensity) in a complex with cucurbituril versus without [2]: greater | ε × φf (brightness) ([2]; with 1 mM CB7): 51000 | φf ([2]; with 1 mM CB7): 0.456 | ε × φf (brightness) ([2]; without CB7): 37260 | φf ([2]; without CB7): 0.27 | λabs max ([3]; with 1 mM CB7): 642.2 | λem max ([3]; with 1 mM CB7): 657.0 | λabs max ([3]; without CB7): 642.0 | λem max ([3]; without CB7): 660.0

O=C1OC2(c3ccc(O)cc3Oc3cc(O)ccc32)c2ccccc21 [fluorescein]
improvement in photostability by cucurbiturils according to formulae (B) to (E) ([4]; anionic fluorescent dye): only a slight or no improvement
